Test results published in the supplement of paper PMC10627819.

How the values were obtained:
Test in all cases: fitness (endpoint OD595 vs no drug) (fraction); higher = more growth
B. subtilis 168 = system: B. subtilis 168
Outline: (§1)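 Bacterial growth was followed in 384-well plates seeded at OD595 0.01, with 30 µl per well, or 55 µl for S. pneumoniae, in TSB, LB Lennox or CY at 37 °C. OD595 was read every 30 min for 14 h, and each reading had the first reading subtracted as background. Fitness is the background-corrected optical density at entry into stationary phase divided by the robust mean of the no-drug control wells. This ratio is capped at 1.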

S. aureus DSM 20231 = system: S. aureus DSM 20231
Outline: as §1

S. pneumoniae D39V = system: S. pneumoniae D39V
Outline: as §1

CN(C)[C@@H]1C(O)=C(C(N)=O)C(=O)[C@@]2(O)C(O)=C3C(=O)c4c(O)ccc(Cl)c4[C@@](C)(O)[C@H]3C[C@@H]12 [Chlortetracycline] + CO/N=C(\C(=O)N[C@@H]1C(=O)N2C(C(=O)O)=C(COC(C)=O)CS[C@H]12)c1csc(N)n1 [Cefotaxime]
fitness, one replicate
Details | partner 0.00775 µg/mL | partner 0.0155 µg/mL | partner 0.031 µg/mL | partner 0.039 µg/mL | partner 0.0625 µg/mL | partner 0.078 µg/mL | partner 0.125 µg/mL | partner 0.156 µg/mL | partner 0.25 µg/mL | partner 0.312 µg/mL
B. subtilis 168, first compound 0.0475 µg/mL | 0.783 | 0.597 | 0.5 | – | 0.532 | – | 0.381 | – | 0.326 | –
B. subtilis 168, first compound 0.095 µg/mL | 0.703 | 0.536 | 0.38 | – | 0.458 | – | 0.283 | – | 0.186 | –
B. subtilis 168, first compound 0.19 µg/mL | 0.413 | 0.149 | 0.0377 | – | 0.135 | – | 0.0644 | – | 0.06 | –
S. aureus DSM 20231, first compound 0.006 µg/mL | – | – | – | 0.775 | – | 0.689 | – | 0.677 | – | 0.635

Details | fitness
B. subtilis 168, first compound 0.0475 µg/mL, partner 0.5 µg/mL | 0.326
B. subtilis 168, first compound 0.0475 µg/mL, partner 1 µg/mL | 0.19
B. subtilis 168, first compound 0.0475 µg/mL, partner 2 µg/mL | 0.147
B. subtilis 168, first compound 0.095 µg/mL, partner 0.5 µg/mL | 0.199
B. subtilis 168, first compound 0.095 µg/mL, partner 1 µg/mL | 0.0513
B. subtilis 168, first compound 0.095 µg/mL, partner 2 µg/mL | 0.117
B. subtilis 168, first compound 0.19 µg/mL, partner 0.5 µg/mL | 0.129
B. subtilis 168, first compound 0.19 µg/mL, partner 1 µg/mL | 0.0806
B. subtilis 168, first compound 0.19 µg/mL, partner 2 µg/mL | 0.111
S. aureus DSM 20231, first compound 0.012 µg/mL, partner 0.039 µg/mL | 0.533
S. aureus DSM 20231, first compound 0.012 µg/mL, partner 0.078 µg/mL | 0.608
S. aureus DSM 20231, first compound 0.012 µg/mL, partner 0.156 µg/mL | 0.561
S. aureus DSM 20231, first compound 0.012 µg/mL, partner 0.312 µg/mL | 0.44
S. aureus DSM 20231, first compound 0.024 µg/mL, partner 0.312 µg/mL | 0.271
S. aureus DSM 20231, first compound 0.048 µg/mL, partner 0.039 µg/mL | 0.258
S. aureus DSM 20231, first compound 0.048 µg/mL, partner 0.078 µg/mL | 0.137
S. aureus DSM 20231, first compound 0.048 µg/mL, partner 0.156 µg/mL | 0.125
S. aureus DSM 20231, first compound 0.048 µg/mL, partner 0.312 µg/mL | 0.108
S. pneumoniae D39V, first compound 0.012 µg/mL, partner 0.0018 µg/mL | 0.88
S. pneumoniae D39V, first compound 0.012 µg/mL, partner 0.0035 µg/mL | 0.94
S. pneumoniae D39V, first compound 0.012 µg/mL, partner 0.007 µg/mL | 0.885
S. pneumoniae D39V, first compound 0.024 µg/mL, partner 0.0018 µg/mL | 0.664
S. pneumoniae D39V, first compound 0.024 µg/mL, partner 0.0035 µg/mL | 0.641
S. pneumoniae D39V, first compound 0.024 µg/mL, partner 0.007 µg/mL | 0.629
S. pneumoniae D39V, first compound 0.048 µg/mL, partner 0.0018 µg/mL | 0.301
S. pneumoniae D39V, first compound 0.048 µg/mL, partner 0.0035 µg/mL | 0.251
S. pneumoniae D39V, first compound 0.048 µg/mL, partner 0.007 µg/mL | 0.238
S. pneumoniae D39V, first compound 0.375 µg/mL, partner 0.0018 µg/mL | 0.0683
S. pneumoniae D39V, first compound 0.375 µg/mL, partner 0.0035 µg/mL | 0.0612
S. pneumoniae D39V, first compound 0.375 µg/mL, partner 0.007 µg/mL | 0.0585
S. pneumoniae D39V, first compound 0.75 µg/mL, partner 0.0018 µg/mL | 0.086
S. pneumoniae D39V, first compound 0.75 µg/mL, partner 0.0035 µg/mL | 0.0734
S. pneumoniae D39V, first compound 0.75 µg/mL, partner 0.007 µg/mL | 0.0886
S. pneumoniae D39V, first compound 1.5 µg/mL, partner 0.0018 µg/mL | 0.0498
S. pneumoniae D39V, first compound 1.5 µg/mL, partner 0.0035 µg/mL | 0.0657
S. pneumoniae D39V, first compound 1.5 µg/mL, partner 0.007 µg/mL | 0.0651

CN(C)[C@@H]1C(O)=C(C(N)=O)C(=O)[C@@]2(O)C(O)=C3C(=O)c4c(O)ccc(Cl)c4[C@@](C)(O)[C@H]3C[C@@H]12 [Chlortetracycline] + COc1c(N2C[C@@H]3CCCN[C@@H]3C2)c(F)cc2c(=O)c(C(=O)O)cn(C3CC3)c12 [Moxifloxacin]
Details | fitness
B. subtilis 168, first compound 0.0475 µg/mL, partner 0.0312 µg/mL | 0.0451
B. subtilis 168, first compound 0.0475 µg/mL, partner 0.0625 µg/mL | 0.0327
B. subtilis 168, first compound 0.0475 µg/mL, partner 0.125 µg/mL | 0.0439
B. subtilis 168, first compound 0.0475 µg/mL, partner 2 µg/mL | 0.0242
B. subtilis 168, first compound 0.0475 µg/mL, partner 4 µg/mL | 0.0248
B. subtilis 168, first compound 0.0475 µg/mL, partner 8 µg/mL | 0.0159
B. subtilis 168, first compound 0.095 µg/mL, partner 0.0312 µg/mL | 0.104
B. subtilis 168, first compound 0.095 µg/mL, partner 0.0625 µg/mL | 0.0278
B. subtilis 168, first compound 0.095 µg/mL, partner 0.125 µg/mL | 0.0296
B. subtilis 168, first compound 0.095 µg/mL, partner 2 µg/mL | 0.0289
B. subtilis 168, first compound 0.095 µg/mL, partner 4 µg/mL | 0.0255
B. subtilis 168, first compound 0.095 µg/mL, partner 8 µg/mL | 0.0155
B. subtilis 168, first compound 0.19 µg/mL, partner 0.0312 µg/mL | 0.0533
B. subtilis 168, first compound 0.19 µg/mL, partner 0.0625 µg/mL | 0.0332
B. subtilis 168, first compound 0.19 µg/mL, partner 0.125 µg/mL | 0.0433
B. subtilis 168, first compound 0.19 µg/mL, partner 2 µg/mL | 0.0261
B. subtilis 168, first compound 0.19 µg/mL, partner 4 µg/mL | 0.0247
B. subtilis 168, first compound 0.19 µg/mL, partner 8 µg/mL | 0.0129
S. aureus DSM 20231, first compound 0.012 µg/mL, partner 0.0075 µg/mL | 0.558
S. aureus DSM 20231, first compound 0.012 µg/mL, partner 0.015 µg/mL | 0.539
S. aureus DSM 20231, first compound 0.012 µg/mL, partner 0.03 µg/mL | 0.604
S. aureus DSM 20231, first compound 0.024 µg/mL, partner 0.0075 µg/mL | 0.193
S. aureus DSM 20231, first compound 0.024 µg/mL, partner 0.015 µg/mL | 0.177
S. aureus DSM 20231, first compound 0.048 µg/mL, partner 0.0075 µg/mL | 0.185
S. aureus DSM 20231, first compound 0.048 µg/mL, partner 0.015 µg/mL | 0.172
S. aureus DSM 20231, first compound 0.048 µg/mL, partner 0.03 µg/mL | 0.132
S. pneumoniae D39V, first compound 0.012 µg/mL, partner 0.005 µg/mL | 0.907
S. pneumoniae D39V, first compound 0.012 µg/mL, partner 0.01 µg/mL | 0.923
S. pneumoniae D39V, first compound 0.012 µg/mL, partner 0.02 µg/mL | 0.765
S. pneumoniae D39V, first compound 0.024 µg/mL, partner 0.005 µg/mL | 0.863
S. pneumoniae D39V, first compound 0.024 µg/mL, partner 0.01 µg/mL | 0.915
S. pneumoniae D39V, first compound 0.024 µg/mL, partner 0.02 µg/mL | 0.844
S. pneumoniae D39V, first compound 0.048 µg/mL, partner 0.005 µg/mL | 0.821
S. pneumoniae D39V, first compound 0.048 µg/mL, partner 0.01 µg/mL | 0.871
S. pneumoniae D39V, first compound 0.048 µg/mL, partner 0.02 µg/mL | 0.78
S. pneumoniae D39V, first compound 0.375 µg/mL, partner 0.0312 µg/mL | 0.0285
S. pneumoniae D39V, first compound 0.375 µg/mL, partner 0.0625 µg/mL | 0.0351
S. pneumoniae D39V, first compound 0.375 µg/mL, partner 0.125 µg/mL | 0.0309
S. pneumoniae D39V, first compound 0.75 µg/mL, partner 0.0312 µg/mL | 0.0253
S. pneumoniae D39V, first compound 0.75 µg/mL, partner 0.0625 µg/mL | 0.0219
S. pneumoniae D39V, first compound 0.75 µg/mL, partner 0.125 µg/mL | 0.0157
S. pneumoniae D39V, first compound 1.5 µg/mL, partner 0.0312 µg/mL | 0.0473
S. pneumoniae D39V, first compound 1.5 µg/mL, partner 0.0625 µg/mL | 0.0386
S. pneumoniae D39V, first compound 1.5 µg/mL, partner 0.125 µg/mL | 0.0409

S. aureus DSM 20231, one replicate
Details | fitness
first compound 0.006 µg/mL, partner 0.0075 µg/mL | 0.729
first compound 0.006 µg/mL, partner 0.015 µg/mL | 0.719
first compound 0.006 µg/mL, partner 0.03 µg/mL | 0.621
first compound 0.012 µg/mL, partner 0.06 µg/mL | 0.659
first compound 0.012 µg/mL, partner 0.12 µg/mL | 0.548
first compound 0.024 µg/mL, partner 0.06 µg/mL | 0.66
first compound 0.024 µg/mL, partner 0.12 µg/mL | 0.535
first compound 0.048 µg/mL, partner 0.06 µg/mL | 0.14
first compound 0.048 µg/mL, partner 0.12 µg/mL | 0.165

CN(C)[C@@H]1C(O)=C(C(N)=O)C(=O)[C@@]2(O)C(O)=C3C(=O)c4c(O)ccc(Cl)c4[C@@](C)(O)[C@H]3C[C@@H]12 [Chlortetracycline] + COc1ccc(C[C@H](N)C(=O)N[C@H]2[C@@H](O)[C@H](n3cnc4c(N(C)C)ncnc43)O[C@@H]2CO)cc1 [Puromycin]
fitness
Details | partner 0.39 µg/mL | partner 0.78 µg/mL | partner 1 µg/mL | partner 1.56 µg/mL | partner 2 µg/mL | partner 4 µg/mL
B. subtilis 168, first compound 0.0475 µg/mL | 0.858 | 0.901 | – | 0.904 | – | –
B. subtilis 168, first compound 0.095 µg/mL | 0.741 | 0.728 | – | 0.671 | – | –
B. subtilis 168, first compound 0.19 µg/mL | 0.512 | 0.459 | – | 0.351 | – | –
S. aureus DSM 20231, first compound 0.012 µg/mL | 0.567 | 0.589 | – | 0.497 | – | –
S. aureus DSM 20231, first compound 0.024 µg/mL | 0.2 | 0.217 | – | 0.137 | – | –
S. aureus DSM 20231, first compound 0.048 µg/mL | 0.053 | 0.171 | – | 0.0612 | – | –
S. pneumoniae D39V, first compound 0.375 µg/mL | – | – | 0.0657 | – | 0.0757 | 0.0703
S. pneumoniae D39V, first compound 0.75 µg/mL | – | – | 0.0562 | – | 0.0783 | 0.0776
S. pneumoniae D39V, first compound 1.5 µg/mL | – | – | 0.0348 | – | 0.0557 | 0.0492

fitness, one replicate
Details | first compound 0.006 µg/mL | first compound 0.012 µg/mL | first compound 0.024 µg/mL | first compound 0.048 µg/mL
S. aureus DSM 20231, partner 0.39 µg/mL | 0.853 | – | – | –
S. aureus DSM 20231, partner 0.78 µg/mL | 0.847 | – | – | –
S. aureus DSM 20231, partner 1.56 µg/mL | 0.731 | – | – | –
S. aureus DSM 20231, partner 3.12 µg/mL | – | 0.325 | 0.0559 | 0.0249
S. aureus DSM 20231, partner 6.24 µg/mL | – | 0.0809 | 0.0524 | 0.0264
S. pneumoniae D39V, partner 1 µg/mL | – | 0.822 | 0.875 | 0.647
S. pneumoniae D39V, partner 2 µg/mL | – | 0.793 | 0.773 | 0.453
S. pneumoniae D39V, partner 4 µg/mL | – | 0.619 | 0.606 | 0.171
